# Test results from US10898873B2, “Lecithin compositions and methods of making and using such lecithin compositions” (Archer Daniels Midland Company, priority 2015, dated 2021).
# Experiment: Solubility of sorbitol in ethanol
# Format: physicochemical
# Excerpt: Sugar alcohols can become heavily supersaturated upon cooling. When water is slowly replaced with ethanol, there can be a significant change in the maximum concentration at which the solute is completely soluble. In this example, blends of a 70% sorbitol solution and ethanol were made.
smiles,measurement,setting,value
OC[C@@H](O)[C@@H](O)[C@H](O)[C@@H](O)CO [sorbitol],clarity of sorbitol/ethanol blend,"70% sorbitol solution and ethanol, ratio 70:30",completely clear
same,clarity of sorbitol/ethanol blend,blends with greater than 30% ethanol,crystallization of the sorbitol
